These results are taken from publication PMC8231945, “Ingol and Ingenol-Type Diterpenes from Euphorbia trigona Miller with Keratinocyte Inhibitory Activity” (Plants, 2021).

For orientation: IC50 means the concentration that inhibits the measured activity by half.

This data set deals with HPV-Ker cells. The data set can be described thus: Viability test of HPV-Ker keratinocytes by real-time impedance monitoring (xCELLigence RTCA). It counts as cell-based, human. Conditions: for IC50: Homo sapiens, Keratinocyte; for keratinocyte inhibitory activity in vitro (overall verdict) / cytotoxic effect against keratinocytes: HPV-Ker; for keratinocyte inhibitory activity in vitro (overall verdict): compared to ingenol mebutate. From the text:
The main risk factor of induction of AK is UV irradiation. The UVB component of sunlight damages DNA, which might cause mutations in p53 and other tumor suppressor genes. Therefore, as an in vitro model of AK, we used the HPV-Ker cell line which contains the E6 oncoprotein of the human papillomavirus, leading to the degradation of the p53 tumor suppressor [26].
Since our compounds, especially the ingenol-derivatives, are structurally very similar to ingenol mebutate (Figure 3), we were interested in whether they have any effect on the viability of keratinocytes. The HPV-Ker cell line was treated with the isolated ingol- and ingenol-type diterpenoids with a concentration range of 5 × 10^−9–5 × 10^−4 M, the viability was measured with the xCELLigence System RTCA HT (Agilent Technologies, Santa Clara, CA, USA) instrument for 72 h, and data at 24 and 48 h were used for calculations (Table 1). IC50 values were calculated based on the sigmoidal dose–response formula.
The immortalized human keratinocyte cell line (HPV-Ker) was cultured in Keratinocyte-SFM supplemented with 5 ng/mL of recombinant epidermal growth factor, […] of bovine pituitary extract, and antibiotic/antimycotic solution in a CO2 thermostat at 37 °C.
The effect of the extracts and the purified compounds on HPV-Ker cells was investigated by real-time monitoring with the xCELLigence System RTCA HT Instrument (ACEA Biosciences, San Diego, CA, USA). 8 × 10^3 HPV-Ker cells were seeded in 96-well E-plates and keratinocytes were allowed to attach to the bottom of the wells and grow for 24 h. Cells were then treated with the indicated extract or substance for another 72 h. Real-time measurements of impedance were monitored every 15 min, then data at 24 and 48 h were used for calculations. The half-maximal inhibitory concentration (IC50) values for the compounds were calculated and GraphPad Prism 9.0 was used to plot results. All experiments were performed in duplicate, in three independent repeats.

Setting [1] is: HPV-Ker cell line, 24 h of treatment, ± SD, read-out: IC50 Value 24 h.
Setting [2] is: HPV-Ker cell line, 48 h of treatment, ± SD, read-out: IC50 Value 48 h.
The mark [3] stands for this setting: HPV-Ker cells, RTCA normalized CI * hours, 24 h, read-out: IC50 (24h), Figure 4.
Where [4] appears, read: HPV-Ker cells, RTCA normalized CI * hours, 48 h, read-out: IC50 (48h), Figure 4.

Where two headings read alike, the source gives them in different places.

On to `C/C=C(\C)C(=O)O[C@@H]1/C(C)=C/[C@@]23O[C@@]2(C[C@H](C)[C@@H]3OC(C)=O)C(=O)[C@H](C)[C@H](OC(C)=O)[C@@H]2[C@H]([C@@H]1O)C2(C)C` [Compound 1, Ingol 3,12-diacetate 7-tigliate], for which the 50% inhibitory concentration (IC50) amounted to 14200 ± 2850 nM under setting [1] and 1720 ± 140 nM under setting [2].
Consider `C/C=C(\C)C(=O)O[C@@H]1/C(C)=C/[C@@]23O[C@@]2(C[C@H](C)[C@@H]3OC(C)=O)C(=O)[C@H](C)[C@H](OC(C)=O)[C@@H]2[C@H]([C@@H]1OC)C2(C)C` [Compound 2, 8-O-methyl-ingol 3,12-diacetate 7-tigliate], for which the 50% inhibitory concentration (IC50) is, setting by setting: under setting [1], 17300 ± 1650 nM; under setting [2], 14500 ± 3780 nM.
With `CO[C@H]1[C@H]2[C@@H]([C@@H](OC(C)=O)[C@@H](C)C(=O)[C@@]34C[C@H](C)[C@H](OC(C)=O)[C@]3(/C=C(\C)[C@H]1OC(=O)c1ccccc1)O4)C2(C)C` [Compound 3, 8-O-methyl-ingol 3,12-diacetate 7-benzoate], the “IC50 Value 24 h” value (HPV-Ker cell line, 24 h of treatment, ± SD) was “inactive”. Besides, the “IC50 Value 48 h” value (HPV-Ker cell line, 48 h of treatment, ± SD) is “inactive”.
In the case of `C/C=C(/C)C(=O)O[C@H]1C(C)=CC23C(=O)[C@@H](C=C(COC(C)=O)[C@@H](O)[C@]12O)[C@H]1[C@@H](C[C@H]3C)[C@@]1(C)COC(C)=O` [Compound 6, 17-acetoxyingenol 3-angelate 20-acetate], the “keratinocyte inhibitory activity in vitro (overall verdict)” value is listed as “strong keratinocyte inhibitory activity”. For the same compound, the IC50 under setting [1] worked out at 390 ± 90 nM. Also, the concentration for half-maximal inhibition (IC50) under setting [2] amounted to 320 ± 50 nM.
Take `C/C=C(/C)C(=O)O[C@H]1C(C)=CC23C(=O)[C@@H](C=C(COC(C)=O)[C@@H](OC(C)=O)[C@]12O)[C@H]1[C@@H](C[C@H]3C)[C@@]1(C)COC(C)=O` [Compound 7, 17-acetoxyingenol 3 angelate 5,20-diacetate]: the “keratinocyte inhibitory activity in vitro (overall verdict)” value was “strong keratinocyte inhibitory activity”. Besides, under setting [1], the IC50 was 320 ± 20 nM. Also, the concentration for half-maximal inhibition (IC50) under setting [2] came to 870 ± 70 nM. Under setting [3], the IC50 amounted to 323 nM. For the same compound, under setting [4], the concentration for half-maximal inhibition (IC50) amounted to 873 nM.
In the case of `C/C=C(/C)C(=O)O[C@H]1C(C)=CC23C(=O)[C@@H](C=C(C)[C@@H](O)[C@]12O)[C@H]1[C@@H](C[C@H]3C)[C@@]1(C)COC(C)=O` [Compound 8, 17-acetoxy-20-deoxyingenol 3-angelate], the IC50 under setting [1] was 4320 ± 920 nM.
As to `C/C=C(/C)C(=O)O[C@@H]1C(C)=C[C@@H]2C(=O)C3(C=C(C)[C@H](O)[C@@]13O)[C@H](C)C[C@@H]1[C@H]2[C@]1(C)COC(C)=O` [Compound 9, 17-acetoxy-20-deoxyingenol 5-angelate], the half-inhibitory concentration (IC50) was determined as 14800 ± 3830 nM under setting [1] and 7930 ± 1710 nM under setting [2].
On to `C/C=C(/C)C(=O)O[C@H]1C(C)=C[C@]23C(=O)[C@@H](C=C(CO)[C@@H](O)[C@]12O)[C@H]1[C@@H](C[C@H]3C)C1(C)C` [Ingenol mebutate, reference compound], for which the “cytotoxic effect against keratinocytes” value reads like this: (0.5 µg/mL, 24 h) “weaker, but still significant, cytotoxic effect”; (0.5 µg/mL, 48 h) “comparable to the treatment when 5 µg/mL was used for 48 h”; (5 µg/mL, 24 h) “strongest cytotoxic effect”; (5 µg/mL, 48 h) “lower cytotoxicity”. Moreover, the IC50 under setting [1] came to 840 ± 10 nM, the half-maximal inhibitory concentration (IC50) under setting [2] is 960 ± 30 nM, the IC50 under setting [3] came to 844 nM and the IC50 under setting [4] was determined as 959 nM.
